Assay results: patent US4871388A, “Herbicidal liquid concentrate compositions” (priority 1987, dated 1989)

Columns and labels:
[1] = Solubility of the isomeric mixture at room temperature in various solvents (Table I); format: physicochemical
Excerpt: |at Room Temperature in Various Solvents

[2] = Initial solubility and dissolution in water of 7.5 g of liquid concentrate compositions utilizing 1 molar equivalent of different acids (Table II); conditions: solvents with greater than 20% by weight solubility; without addition of 0.2 to 1.0 molar equivalent of acids
[3] = Dilution in water of solutions of the ester(s) to normal agricultural tank-mix rates; format: physicochemical; conditions: solvents with >15% solubility; normal agricultural tank-mix rates (1:9-1:99)

isomeric mixture of 6-(5-isopropyl-5-methyl-4-oxo-2-imidazolin-2-yl)-m-toluic acid, methyl ester and 2-(5-isopropyl-5-methyl-4-oxo-2-imidazolin-2-yl)-p-toluic acid, methyl ester
limited solubility by weight ([1]; in many of the solvents listed in Table I): ≤ 15% | % Solubility by Weight ([1]; solvent: 1-Formylpiperidine): > 15% | % Solubility by Weight ([1]; solvent: 1-propanol): > 15% | % Solubility by Weight ([1]; solvent: Amyl acetate): 5% | % Solubility by Weight ([1]; solvent: Amyl alcohol (mixed)): > 15% | % Solubility by Weight ([1]; solvent: Anisole): 5% | % Solubility by Weight ([1]; solvent: Aromatic 150): 5% | % Solubility by Weight ([1]; solvent: Chloroform): > 15% | % Solubility by Weight ([1]; solvent: Diethyl succinate): 5% | % Solubility by Weight ([1]; solvent: Dimethyl sulfoxide): > 15% | % Solubility by Weight ([1]; solvent: Dimethylformamide): > 15% | % Solubility by Weight ([1]; solvent: Methanol): > 15% | % Solubility by Weight ([1]; solvent: Methyl cellosolve): > 15% | % Solubility by Weight ([1]; solvent: Methyl oleate): 5% | % Solubility by Weight ([1]; solvent: N-methylpyrrolidone): > 15% | % Solubility by Weight ([1]; solvent: Oleic acid): 5% | % Solubility by Weight ([1]; solvent: Penn Drake Oil (Kerosene)): 5% | % Solubility by Weight ([1]; solvent: Propylene glycol): 5% | % Solubility by Weight ([1]; solvent: Tenneco 500/1000): 5% | % Solubility by Weight ([1]; solvent: Triethanolamine): 5% | % Solubility by Weight ([1]; solvent: Xylene): 5% | dissolution characteristics of the resulting concentrate [2]: not satisfactory | precipitate formation on dilution in water [3]: unsprayable precipitates are formed
